Test system: UMSCC74A cells
Test: Cell proliferation (MTT) in UMSCC74A cells
Assay type: cell-based, human
Conditions: for cell proliferation, single-agent: UMSCC74A (HPV-negative), 10 μM; for effect on efficacy of cis-platinum on proliferation: UMSCC74A, 10 μM with cis-platinum 10 μM
Text: FIG. 5A is an schematic illustration showing that CH1 has two distinct target sites. HIF1-α/p300 structures were used as guides to design helix mimetics that target site A and site B on the CH1 domain of p300. […] CH1iA (SEQ ID NO: 7) and CH1iB (SEQ ID NO: 8) were designed to mimic two helices from the C-terminal domain of HIF-1α. The peptides were locked into the helical conformation by the hydrogen bond surrogate method. FIG. 5C is a graph of p53 activity. UMSCC47 (left) and UMSCC74A (right) cells were co-transfected with a p53 Firefly luciferase reporter plasmid and a control Renilla luciferase plasmid. After 24 hours, cells were treated with control (vehicle), CH1iA (10 μM), or CH1iB (10 μM) for 24 hours. Firefly luciferase activity was normalized to Renilla luciferase activity to control for transfection efficiency. Data is normalized to control and presented as mean±SEM. *P<0.05, n=3. FIG. 5D is a western blot showing total and acetylated p53 levels. UMSCC47 (left) and UMSCC74A (right) cells were treated with control (vehicle), CH1iA (10 μM), or CH1iB (10 μM) for 24 hours. Cell lysates were immunoblotted with anti-p53 or anti-acetylated[K382]-p53 antibody. FIG. 5E is a pair of graphs of p300, p53, p21, miR-34a, and miR-200c expression. UMSCC47 (top panel) and UMSCC74A (bottom panel) cells were treated with control (vehicle), CH1iA (10 μM), or CH1iB (10 μM) for 24 hours. mRNA expression was determined using qPCR with validated TaqMan assays. Data is normalized to control cells and presented as mean±SEM. *P<0.01, control vs. CH1iB, n=3. FIG. 5F is a western blot showing HPV16 E6-p300 association. UMSCC47 cells were treated with control (vehicle), CH1iA (10 μM), or CH1iB (10 μM) for 24 hours. Cell lysates were extracted, immunoprecipitated with anti-p300 antibody, and immunoblotted with anti-E6 antibody. Cell lysates were immunoblotted with anti-E6 or anti-p300 antibody for input control. FIG. 5G is a set of graphs of cell proliferation. UMSCC47 (top left panel), UMSCC74A (top right panel), and IMR90 (human normal fibroblasts) (bottom panel) cells were treated with control (vehicle), CH1iA (10 μM), CH1iB (10 μM), cis-platinum (10 μM), CH1iA (10 μM) and cis-platinum (10 μM), or CH1iB (10 μM) and cis-platinum (10 μM) for 24, 48, or 72 hours. […]
Cell proliferation was assessed using the MTT reagent (Roche Molecular Biochemicals, Nutley, N.J.) to detect metabolic active cells. Absorbance was measured at 570 nm in the Spectra Max 190 ELISA reader (Molecular Devices, Sunnyvale, Calif.) after overnight incubation. […] Apoptotic cells were analyzed using BD FACS Calibur (BD Biosciences Corporation, Franklin Lakes, N.J.) at The Ohio State University Comprehensive Cancer Center Analytical Cytometry Core.

Substance | cell proliferation, single-agent | effect on efficacy of cis-platinum on proliferation
XELA*RALDQ-NH2 (ELXRALDQ; HBS: 4-pentenoic acid, N-allylalanine; C-terminal amide; CH1iB) [X 4-pentenoic acid, A* N-allylalanine] | no effect | did not augment
XTAA*DCEYNAR (TAXDCEYNAR; HBS: 4-pentenoic acid, N-allylalanine; CH1iA) [X 4-pentenoic acid, A* N-allylalanine, reference compound] | no effect | did not augment

— patent US9605026B2, “Hydrogen-bond surrogate peptides and peptidomimetics for p53 reactivation” (New York University, priority 2013, dated 2017)
